Laboratory results taken from US12259330B2 (ARIZONA BOARD OF REGENTS ON BEHALF OF ARIZONA STATE …, priority 2021, dated 2025).

Biological target: T1, PCSK9 (Homo sapiens, UniProt Q8NBP7)
T1 construct: gift from Dr. Daniel Kirchhofer, Genentech
Assay: SPR measurement of PCSK9 binding to synthesized pep2-8
Settings: synthesized peptide on streptavidin-coated gold surface, average and standard deviation over PCSK9 concentrations
Experimental: The synthesized peptide was immobilized to a streptavidin-coated gold surface. Different concentrations of PCSK9 were flowed to the surface to measure the binding kinetics.
The SPR sensor chip was fabricated by coating 1.5 nm Cr and then 47 nm Au on cover glass (no. 1 VWR) using an e-beam evaporator. Prior to surface functionalization, the gold surface was cleaned with ethanol and DI water twice, dried by N2, and annealed by H2 flame. The gold chip was immersed in a mixture of 0.2 mM SH-PEG8-COOH and 0.2 mM MT(PEG)4 overnight. Then, —COOH was activated using NHS/EDC chemistry (50 mM NHS and 200 mM EDC) for 20 min and incubated with 0.1 mg/mL streptavidin in PBS for 30 min to allow immobilization. The remaining unreacted sites were quenched with 10 mM ethanolamine and the nonspecific binding sites were blocked with SuperBlock for 10 min. […] The functionalized chip was finally rinsed with PBS before the measurement.

T1 sequence (Q8NBP7 153-692, species assumed): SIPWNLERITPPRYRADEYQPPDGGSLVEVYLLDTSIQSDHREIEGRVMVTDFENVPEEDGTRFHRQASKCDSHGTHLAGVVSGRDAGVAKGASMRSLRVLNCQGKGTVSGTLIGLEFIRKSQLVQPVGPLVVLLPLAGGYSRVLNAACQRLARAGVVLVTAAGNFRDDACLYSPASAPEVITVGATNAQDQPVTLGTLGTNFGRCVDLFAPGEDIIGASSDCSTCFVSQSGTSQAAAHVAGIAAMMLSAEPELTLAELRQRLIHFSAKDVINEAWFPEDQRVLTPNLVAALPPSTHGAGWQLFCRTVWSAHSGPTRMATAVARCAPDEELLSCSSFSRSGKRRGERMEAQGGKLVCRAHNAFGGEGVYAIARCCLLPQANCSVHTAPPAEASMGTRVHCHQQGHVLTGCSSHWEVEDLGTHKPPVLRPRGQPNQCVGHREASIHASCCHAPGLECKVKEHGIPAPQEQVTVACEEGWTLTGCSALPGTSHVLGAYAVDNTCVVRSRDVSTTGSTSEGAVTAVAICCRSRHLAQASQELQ

CC(=O)N[C@H](C(=O)N[C@H](C(=O)N[C@@H](Cc1ccccc1)C(=O)N[C@H](C(=O)N[C@@H](CO)C(=O)N[C@@H](Cc1c[nH]c2ccccc12)C(=O)N[C@@H](CCC(=O)O)C(=O)N[C@@H](CCC(=O)O)C(=O)N[C@@H](Cc1ccc(O)cc1)C(=O)N[C@@H](CC(C)C)C(=O)N[C@@H](CC(=O)O)C(=O)N[C@@H](Cc1c[nH]c2ccccc12)C(=O)N[C@H](C(N)=O)C(C)C)[C@@H](C)O)C(C)C)[C@@H](C)O [pep2-8]
kd: (1.73±0.25)×10^−1 s^−1
